Assay results published in patent US20240351995A1, “(3-PIRYDYL)-QUINAZOLINE” (BASF SE, priority 2021, published 2024).

Columns and labels:
[1] = system: Corynespora cassiicola G413A mutant; assay: Microtest: activity against Corynespora cassiicola G413A mutant in the microtiterplate test; type: cell-based; details: 31 ppm, relative to active compound-free control (100%)
Text: (§1) The active compounds were formulated separately as a stock solution having a concentration of 10000 ppm in dimethyl sulfoxide.
(§2) The stock solutions were mixed according to the ratio, pipetted onto a micro titer plate (MTP) and diluted with water to the stated concentrations.
(§3) The measured parameters were compared to the growth of the active compound-free control variant (100%) and the fungus-free blank value to determine the relative growth in % of the pathogens in the respective active compounds.
A spore suspension of Corynespora cassiicola in an aqueous biomalt or yeast-bactopeptone-sodiumacetate solution was then added.

[2] = system: Cercospora zeae maydis; assay: Microtest: activity against Cercospora zeae maydis in the microtiterplate test; type: cell-based; details: 31 ppm; relative to active compound-free control (100%)
Text: as §1, §2, §3
A spore suspension of Cercospora zeae maydis in an aqueous biomalt or yeast-bactopeptone-sodiumacetate solution was then added.

| SMILES | growth of the pathogen (relative growth in %) [1] [%] | growth of the pathogen (relative growth in %) [2] [%] |
| --- | --- | --- |
| CCCCN1c2c(F)cccc2C(c2cnc(C(F)F)c(C)c2)=NC1(C)C [Ex-14] | 19 | – |
| Cc1cc(C2=NC(C)(C)N(C#N)c3cc(F)ccc32)cnc1C(F)F [Ex-55] | 19 | – |
| Cc1cc(C2=NC(C)(C)N(C)c3c2ccc(F)c3F)cnc1C(F)F [Ex-91] | 19 | 17 |
| Cc1cc(C2=NC(C)(C)N(C)c3c(F)cccc32)cnc1C(F)F [Ex-6] | 19 | 17 |
| CC(=O)N1c2c(F)cccc2C(c2cnc(C(F)F)c(C)c2)=NC1(C)C [Ex-20] | 19 | – |
| Cc1cc(C2=NC(C)(C)N(C)c3cc(F)ccc32)cnc1C(F)F [Ex-36] | 19 | – |
| Cc1cc(C2=NC(C)(C3CC3)N(C)c3c(F)cccc32)cnc1C(F)F (racemic) [Ex-56] | 19 | 17 |
| Cc1cc(C2=NC(C)(C)N(CC(C)C)c3c(F)cccc32)cnc1C(F)F [Ex-15] | 19 | – |
| Cc1cc(C2=NC(C)(c3ccccc3)N(C)c3c(F)cccc32)cnc1C(F)F (racemic) [Ex-60] | 19 | 17 |
| Cc1ccc2c(c1)N(C)C(C)(C)N=C2c1cnc(C(F)F)c(C)c1 [Ex-40] | 19 | – |
| Cc1cc(C2=NC(C)(C)Nc3c(F)cccc32)cnc1C(F)F [Ex-5] | 19 | 17 |
| CCC1(C)N=C(c2cnc(C(F)F)c(C)c2)c2cccc(F)c2N1 (racemic) [Ex-25] | 19 | – |
| CCN1c2c(F)cccc2C(c2cnc(C(F)F)c(C)c2)=NC1(C)C [Ex-7] | 19 | – |
| Cc1cc(C2=NC(C)(C)N(C)c3c(Cl)cccc32)cnc1C(F)F [Ex-9] | 19 | 17 |
| Cc1ccc2c(c1)NC(C)(C)N=C2c1cnc(C(F)F)c(C)c1 [Ex-31] | 19 | – |
| Cc1cc(C2=NC(C)(C)Nc3c(Cl)cccc32)cnc1C(F)F [Ex-8] | 19 | – |

| SMILES | growth of the pathogen (relative growth in %) [1] [%] | growth of the pathogen (relative growth in %) [2] [%] |
| --- | --- | --- |
| Cc1cc(C2=NC(C)(C)N(C#N)c3c(Cl)cccc32)cnc1C [Ex-28] | 19 | – |
| Cc1cc(C2=NC(C)(C)N(C)c3c(Br)cccc32)cnc1C(F)F [Ex-50] | 19 | 17 |
| Cc1cc(C2=NC(C)(C)N(C)c3c(Cl)cccc32)cnc1C [Ex-22] | 19 | 17 |
| CCC1(C)N=C(c2cnc(C(F)F)c(C)c2)c2cccc(F)c2N1C (racemic) [Ex-29] | 19 | 17 |
| Cc1cc(C2=NC(C)(CC(C)C)N(C)c3c(F)cccc32)cnc1C(F)F (racemic) [Ex-32] | 19 | – |
| C#Cc1cccc2c1NC(C)(C)N=C2c1cnc(C(F)F)c(C)c1 [Ex-81] | – | 17 |
| Cc1cc(C2=NC(C)(C)N(C)c3c(C)cccc32)cnc1C(F)F [Ex-53] | 19 | 17 |
| Cc1cc(C2=NC(C)(c3ccccn3)N(C)c3c(F)cccc32)cnc1C(F)F (racemic) [Ex-61] | 19 | 17 |
| Cc1cc(C2=NC(C)(C)N(C)c3cc(Cl)ccc32)cnc1C(F)F [Ex-38] | 19 | 17 |
| Cc1cc(C2=NC(C)(CC(C)C)N(C#N)c3c(F)cccc32)cnc1C(F)F (racemic) [Ex-41] | 19 | 17 |
| CCCN1c2c(F)cccc2C(c2cnc(C(F)F)c(C)c2)=NC1(C)C [Ex-13] | 19 | – |
| Cc1cc(C2=NC(C)(C)N(C#N)c3ccccc32)cnc1C(F)F [Ex-27] | 19 | – |
| Cc1cc(C2=NC(C)(C)Nc3c(Cl)cccc32)cnc1C [Ex-23] | 19 | – |
| Cc1cc(C2=NC(C)(C)N(C#N)c3ccccc32)cnc1C [Ex-35] | 19 | – |
| Cc1cc(C2=NC(C)(CC(C)C)Nc3c(F)cccc32)cnc1C(F)F (racemic) [Ex-26] | 19 | – |
